According to US11103619B2, “Anticalcification treatment for impantable biological tissues using calcitonin” (priority 2018, dated 2021):

Test system: Porcine aortic leaflets implanted subdermally in male Wistar rats
Assay: Post-implantation calcium content of treated porcine aortic leaflets implanted subdermally in rats for 21 days, measured by atomic absorption
Type: in vivo
Conditions: for Cumulative results of post-implantation Ca concentration: mean ± STDEV, p < 0.05 vs Group I (Glut only, 126.95 ± 12.97); for Post implantation Ca Content: explanted after 21 days, mean
Protocol: In one embodiment, the method comprises placing the biological tissue for fixation and preservation in a buffered glutaraldehyde (Glut) solution 0.5% at pH 7.4, adding salmon synthetic calcitonin (CT), such as Miacalcic® of Novartis Hellas A.B.E. In this experiment, two different concentrations of calcitonin were tested. One with 1 unit/100 ml (1%) and the other with 10 units/100 ml (10%). The first fixation process lasted one hour, at a pressure between 2-3 mmHg and subsequently the biological tissues were embedded in an accordingly new solution for one week.
Porcine aortic leaflets were selected as fresh tissue from a local slaughter house and were cut radially in three parts. Following harvesting, the biological tissue is rinsed and maintained in cold Hepa saline solution (temperature between 4°-12° C.) between two to six hours.
Three groups of tissue were created. Group I (Glut only), Group II (Glut with 1% CT) and Group III (Glut with 10% CT). All tissues were then implanted subdermally in three sets of 8 (Group I), 9 (Group II) and 9 (Group III) male Wistar rats of 12 days old (Center for Experimental Surgery, Biomedical Research Foundation of the Academy of Athens). […] All tissues were rinsed three times in normal saline solution for 10 minutes each time before implantation. Each rat received four fragments of tissue at the dorsum, through four separate incisions (two at each side) each of 1 cm long, with a technique we have previously described elsewhere (Agathos E A et al: “In vivo calcification of glutaraldehyde fixed cardiac valve and pericardium of Phoca Groenlandica”: ASAIO 57(4):328-332, July/August 2011).
21 days later the rats were euthanized by inhalation of CO2. All procedures were approved by the Animal Care Committee of the Academy of Athens and performed according to the Guide for the Care and Use of Laboratory Animals prepared by the Institutes of Laboratory Animal Resources, National Research Council and published by the National Academy Press, revised 1996 (NIH publication No. 85-23). The tissues were retrieved and after rinsing with distilled water 3 times, were lyophilized at −40° C. at high vacuum pressure of approximately […] for 16 hours. The calcium content was then measured with flat atomic absorption technique.
For statistical analysis, the commercially available software package ANOVA Origin 8.0 for Windows (OriginLab Corporation, Northampton, Mass., USA) was used. P values of 0.05 or less were defined as a statistically significant difference.

In the case of salmon synthetic calcitonin [CT], the “Ca concentration accumulation in the explanted tissues (fold, post vs pre implantation)” value (Group II (1% CT)) is reported as 5.16 ×, the “Cumulative results of post-implantation Ca concentration” value (Group II (1% CT), ns vs Group III) is reported as 24.69 ± 2.71 and the “Post implantation Ca Content” value (Group II: Glut with 1% CT) is reported as 24.69 mg Ca/gr tissue. The “Ca concentration accumulation in the explanted tissues (fold, post vs pre implantation)” value (Group III (10% CT)) was 9.43 ×, the “Cumulative results of post-implantation Ca concentration” value (Group III (10% CT), ns vs Group II) was 27.16 ± 2.95 and the “Post implantation Ca Content” value (Group III: Glut with 10% CT) was 27.16 mg Ca/gr tissue.
